From patent US12673065B2, “Anti-inflammatory composition and method of treatment” (KUWAIT UNIVERSITY, priority 2020, dated 2026)

Legend:
[1] = test system: HDM-challenged BALB/c mice; experiment: HDM-induced airway hyperresponsiveness to methacholine (lung resistance); type: in vivo; conditions: dexamethasone 3 mg/kg; 50 mg/ml of methacholine; HDM/vehicle 7.9±0.5
Protocol: Airway responsiveness was measured 24 h after the last HDM or PBS challenge, using a separate set of animals using the Buxco FinePointe series RC site (DSI, Wilmington, NC) as described previously in the literature. Briefly, mice were anesthetized with an intraperitoneal injection of ketamine/xylazine ([…]) cocktail and tracheotomized with a steel 18-gauge cannula. Mice were then mechanically ventilated at a rate of 150 breaths/minute and a tidal volume of 0.15 ml using a computerized small animal ventilator (FinePointe site). Following a 5 min period of stabilization and administration of PBS, airway resistance was measured by exposing mice to aerosolized methacholine (6.25-50.0 mg/ml, 5 μl per delivery) delivered by an aerogen nebulizer and reported as total lung resistance (RL) (cm H2O per ml/sec).
All numerical values were expressed as means±SEM. Total cell counts represent the number of cells/ml of BAL fluid. Differential cell counts represent the absolute number of each cell type/ml of BAL fluid. Absolute RL values were computed and were used as an index of airway responsiveness. For the histopathological assessment, a semi-quantitative 5-level lung pathology score was used to grade the degree of inflammation in each microscopic field at 20×. All data were initially assessed for normality. […]

[2] = test system: HDM-challenged BALB/c mice; experiment: HDM-induced total and differential cell influx in BAL fluid; type: in vivo; conditions: synergy study, OBE 30 mg/kg i.p., dexamethasone 0.5 mg/kg i.p., alone or combined, mean±SEM
Protocol: (§1) Male BALB/c mice (6-8 weeks old, average weight 25 g) were used in this study. All studies involving animals were in accordance with the ARRIVE guidelines for reporting experiments involving animals. All experimental protocols were approved by the Animal Welfare and Use of Laboratory Animals Committee in the Health Sciences Center, Kuwait University and were carried out in accordance with the EU Directive 2010/63/EU for animal experiments and the National Institutes of Health guide for the care and use of Laboratory animals (NIH Publications No. 8023, revised 1978). Animals were maintained under temperature-controlled conditions with an artificial 12-hour light/dark cycle and were allowed standard chow and water ad libitum.
(§2) Seven treatment groups (A-G, 9-15 animals per group) were established to determine whether OBE, if given prophylactically, inhibits the HDM-induced asthma phenotype. […]
(§3) Twenty-four hours after the last intranasal challenge, half of the animals were sacrificed with an overdose of halothane, bronchoalveolar lavage (BAL) was performed to obtain BAL fluid, and then the lungs were excised in preparation for histology, Western Blot (WB) and immunofluorescence (IF) studies. […] In the other half of the animals, airway responsiveness was measured.

[3] = test system: HDM-challenged BALB/c mice; experiment: Lung histology scoring (H&E and PAS) after HDM challenge; type: in vivo; conditions: synergy study, OBE 30 mg/kg, dexamethasone 0.5 mg/kg, alone or combined, score 1-5
Protocol: as §1, §2, §3

[4] = test system: pERK1/2 (Thr202/Tyr204); experiment: Immunofluorescence of lung sections, phosphorylation of ERK1/2; type: in vivo, mice; conditions: synergy study; OBE 30 mg/kg, dexamethasone 0.5 mg/kg, alone or combined; HDM 319.0±10.4
Protocol: Lung tissues were processed as described above. Immunofluorescence was performed as previously described in the literature. In short, lung sections were incubated in a blocking solution (5% bovine serum albumin (BSA)+0.3% Triton X-100 in PBS) for 1 hour, and were subsequently incubated overnight at 4° C. with primary antibodies [p-EGFR (Tyr1068) (Rabbit; Cat. No. 3777S), pAKT (Ser 473) (Rabbit; Cat. No. 9271L) and pERK1/2 (Thr202/Tyr204) (Rabbit; Cat. No. 9101L) (1:25-1:800 dilution) or only 1% BSA (for negative control); Cell Signaling, USA], diluted in 1% blocking solution. Twenty-four hours later, the sections were washed and incubated with secondary antibody conjugated to Alexa Fluor 555 (Goat anti rabbit SFX kit; Life Technologies, USA, 1:400 dilution) for 2 hours at room temperature in the dark. Following several washes in PBS, the sections were stained with 4′,6-diamidino-2-phenylindole and mounted. Images were then captured on a ZEISS LSM 700 confocal microscope, and fluorescence intensity was estimated in defined fields using an Image J software package. […]
All numerical values were expressed as means±SEM. […] For the histopathological assessment, a semi-quantitative 5-level lung pathology score was used to grade the degree of inflammation in each microscopic field at 20×. All data were initially assessed for normality. […]

In the case of `C[C@@H]1C[C@H]2[C@@H]3CCC4=CC(=O)C=C[C@]4(C)[C@@]3(F)[C@@H](O)C[C@]2(C)[C@@]1(O)C(=O)CO` [dexamethasone], the “lung resistance (RL)” value [1] is reported as 5.2±0.8 cm H2O per ml/sec, the “eosinophils in BAL fluid” value ([2]; HDM/vehicle 3.7±0.3) is reported as 1.3±0.1 ×10^5 and the “total cell count in BAL fluid” value ([2]; HDM/vehicle 6.4±0.5) is reported as 4.3±0.2 ×10^5. The mucous intensity score ([3]; HDM 4.2±0.2) was 3.0±0.2, the cellular infiltration score ([3]; HDM 4.5±0.2) was 3.1±0.3 and the “HDM-induced phosphorylation of ERK1/2 (pERK1/2 levels)” value [4] was 264.8±4.9%.
